Measurements: patent publication US4948782A, “A method of promoting the growth of domestic animals with erythromycin derivative containing composition” (Kitasato Kenkyusho, priority 1987, dated 1990)
Read-outs that look alike come from different tables or passages of the source.

How the values were obtained:
cockerels of broilers = test: Survival rate and growing rate of cockerels of broilers fed the compound in rye-rations for 14 days; format: in vivo, cockerels of broilers (Habbard); conditions: for Gain (Ratio): control = 100.0; for Gain: mean
Protocol: The feeds prepared by adding 0, 1.0, 10.0 and 100.0 ppm of 8,9-anhydroerythromycin A 6,9-hemiketal propargyl chloride respectively to rye-rations, were given to 160 cockerels of broilers (Habbard) of day zero, as 10 cockerels/group×4 repeats/ section, and allowed to be taken freely and continuously for 14 days. The cockerels were positioned to be accommodated for each groups by the Latin square method in an electrically heated battery brooder (the inside thereof is heated at a temperature of 32° C.). The survival rate and the growing rate were measured at 7 and 14 days of age.
Experimental Example 2 was repeated except for changing the administration compound to ethyl-nor-8,9-anhydroerythromycin A 6,9-hemiketal. The result of measuring the survival rate and the growing rate in cockerals of broilers (Habbard) of day zero was shown in Table 8.

Clostridium perfringens = format: in vivo
[1] = tested on: Staphylococcus aureus ATCC 6538P; test: MIC, Staphylococcus aureus ATCC 6538P (SA(1)); format: cell-based; conditions: Staphylococcus aureus, ATCC6538P, Staphylococcus aureus ATCC 6538P; read-out: MIC SA (1)
From the text: (§1) The minimum inhibitory concentrations (MIC: mcg/ml) of the erythromycin derivatives of the present invention and the control erythromycin derivative (*) as the known growth promoting agent on typical test bacteria are shown in the following Tables 1 to 5.
SA(1): Staphylococcus aureus ATCC 6538P

[2] = tested on: Klebsiella pneumoniae ATCC 10031; test: MIC, Klebsiella pneumoniae ATCC 10031 (KP); format: cell-based; conditions: ATCC10031; Klebsiella pneumoniae ATCC 10031; read-out: MIC KP
Escherichia coli NIHJ = test: MIC, Escherichia coli NIHJ (EC); format: cell-based
Bacillus subtilis = test: MIC, Bacillus subtilis (BS); format: cell-based; conditions: read-out: MIC BS
Bacillus cereus IFO 3001 = test: MIC, Bacillus cereus IFO 3001 (BC); format: cell-based; conditions: Bacillus cereus, IFO3001, Bacillus cereus IFO 3001; read-out: MIC BC
[3] = tested on: Staphylococcus aureus FDA 209P; test: MIC, Staphylococcus aureus FDA 209P (SA(2)); format: cell-based; conditions: Staphylococcus aureus, FDA209P, Staphylococcus aureus FDA 209P; read-out: MIC SA (2)
From the text: as §1
SA(2): Staphylococcus aureus FDA 209P

SMILES | Survival rate (cockerels of broilers; 1.0 ppm in feed, 0-7 days) | Gain (Ratio) (cockerels of broilers; 1.0 ppm in feed, 0-7 days) | Gain (cockerels of broilers; 1.0 ppm in feed, 0-7 days) | Survival rate (cockerels of broilers; 1.0 ppm in feed, 0-14 days) | Gain (Ratio) (cockerels of broilers; 1.0 ppm in feed, 0-14 days) | Gain (cockerels of broilers; 1.0 ppm in feed, 0-14 days) | Survival rate (cockerels of broilers; 10.0 ppm in feed, 0-7 days) | Gain (Ratio) (cockerels of broilers; 10.0 ppm in feed, 0-7 days) | Gain (cockerels of broilers; 10.0 ppm in feed, 0-7 days) | Survival rate (cockerels of broilers; 10.0 ppm in feed, 0-14 days) | Gain (Ratio) (cockerels of broilers; 10.0 ppm in feed, 0-14 days) | Gain (cockerels of broilers; 10.0 ppm in feed, 0-14 days) | Survival rate (cockerels of broilers; 100.0 ppm in feed, 0-7 days) | Gain (Ratio) (cockerels of broilers; 100.0 ppm in feed, 0-7 days) | MIC [1] | MIC [2] | MIC (Escherichia coli NIHJ) | MIC (Bacillus subtilis) | MIC (Bacillus cereus IFO 3001) | MIC [3] | other results
C#CC[N+](C)(C)[C@H]1C[C@@H](C)O[C@@H](O[C@@H]2[C@@H](C)[C@H](O[C@H]3C[C@@](C)(OC)[C@@H](O)[C@H](C)O3)[C@@H](C)C(=O)O[C@H](CC)[C@@](C)(O)[C@H](O)[C@@H](C)C3=C(C)C[C@@]2(C)O3)[C@@H]1O [8,9-anhydroerythromycin A 6,9-hemiketal propargyl chloride] | 97.5% | 105.7 | 84.1 g/cockerel | 97.5% | 105.3 | 258.2 g/cockerel | 100.0% | 105.0 | 83.5 g/cockerel | 100.0% | 103.7 | 254.3 g/cockerel | 100.0% | 111.4 |  |  |  |  |  |  | Gain (cockerels of broilers; 100.0 ppm in feed, 0-7 days): 88.6 g/cockerel; Survival rate (cockerels of broilers; 100.0 ppm in feed, 0-14 days): 100.0%; Gain (Ratio) (cockerels of broilers; 100.0 ppm in feed, 0-14 days): 107.4; Gain (cockerels of broilers; 100.0 ppm in feed, 0-14 days): 263.3 g/cockerel; Number of Cl. perfringens (Clostridium perfringens; 1.0 ppm (section 2), day 0): 2.0 log CFU/g; Number of Cl. perfringens (Clostridium perfringens; 1.0 ppm (section 2), day 7): 6.1 log CFU/g; Number of Cl. perfringens (Clostridium perfringens; 10.0 ppm (section 3), day 0): 2.0 log CFU/g; Number of Cl. perfringens (Clostridium perfringens; 10.0 ppm (section 3), day 7): 4.9 log CFU/g; Number of Cl. perfringens (Clostridium perfringens; 100.0 ppm (section 4), day 0): 2.0 log CFU/g; Number of Cl. perfringens (Clostridium perfringens; 100.0 ppm (section 4), day 7): 6.2 log CFU/g
CC[C@H]1OC(=O)[C@H](C)[C@@H](O[C@H]2C[C@@](C)(OC)[C@@H](O)[C@H](C)O2)[C@H](C)[C@@H](O[C@@H]2O[C@H](C)C[C@H]([N+](C)(C)CC)[C@H]2O)[C@](C)(O)C[C@@H](C)C(=O)[C@H](C)[C@@H](O)[C@]1(C)O [Compound 76] |  |  |  |  |  |  |  |  |  |  |  |  |  |  | 6.25 µg/mL | > 100 µg/mL | > 100 µg/mL | < 3.12 µg/mL | 6.25 µg/mL | 12.5 µg/mL | 
C=CC[N+](C)(C)[C@H]1C[C@@H](C)O[C@@H](O[C@@H]2[C@@H](C)[C@H](O[C@H]3C[C@@](C)(OC)[C@@H](O)[C@H](C)O3)[C@@H](C)C(=O)O[C@H](CC)[C@@](C)(O)[C@H](O)[C@@H](C)C(=O)[C@H](C)C[C@@]2(C)O)[C@@H]1O [Compound 77] |  |  |  |  |  |  |  |  |  |  |  |  |  |  | 25 µg/mL | > 100 µg/mL | > 100 µg/mL | 12.5 µg/mL | 12.5 µg/mL | 50 µg/mL | 
C#CC[N+](C)(C)[C@H]1C[C@@H](C)O[C@@H](O[C@@H]2[C@@H](C)[C@H](O[C@H]3C[C@@](C)(OC)[C@@H](O)[C@H](C)O3)[C@@H](C)C(=O)O[C@H](CC)[C@@](C)(O)[C@H](O)[C@@H](C)C(=O)[C@H](C)C[C@@]2(C)O)[C@@H]1O [Compound 78] |  |  |  |  |  |  |  |  |  |  |  |  |  |  | 12.5 µg/mL | > 100 µg/mL | > 100 µg/mL | 6.25 µg/mL | 6.25 µg/mL | 25 µg/mL | 
CC[C@H]1OC(=O)[C@H](C)[C@@H](O[C@H]2C[C@@](C)(OC)[C@@H](O)[C@H](C)O2)[C@H](C)[C@@H](O[C@@H]2O[C@H](C)C[C@H](N(C)CC)[C@H]2O)[C@@]2(C)CC(C)=C(O2)[C@H](C)[C@@H](O)[C@]1(C)O [ethyl-nor-8,9-anhydroerythromycin A 6,9-hemiketal] | 97.5% | 103.1 | 85.7 g/cockerel | 97.5% | 106.8 | 263.3 g/cockerel | 97.5% | 98.3 | 81.7 g/cockerel | 95.0% | 102.6 | 253.1 g/cockerel | 100.0% | 104.3 |  |  |  |  |  |  | Gain (cockerels of broilers; 100.0 ppm in feed, 0-7 days): 86.7 g/cockerel; Survival rate (cockerels of broilers; 100.0 ppm in feed, 0-14 days): 100.0%; Gain (Ratio) (cockerels of broilers; 100.0 ppm in feed, 0-14 days): 105.4; Gain (cockerels of broilers; 100.0 ppm in feed, 0-14 days): 259.8 g/cockerel; Number of Cl. perfringens (Clostridium perfringens; 1.0 ppm (section 2), day 0): 7.03 log CFU/g; Number of Cl. perfringens (Clostridium perfringens; 1.0 ppm (section 2), day 7): 7.20 log CFU/g; Number of Cl. perfringens (Clostridium perfringens; 10.0 ppm (section 3), day 0): 6.83 log CFU/g; Number of Cl. perfringens (Clostridium perfringens; 10.0 ppm (section 3), day 7): 7.54 log CFU/g; Number of Cl. perfringens (Clostridium perfringens; 100.0 ppm (section 4), day 0): 6.59 log CFU/g; Number of Cl. perfringens (Clostridium perfringens; 100.0 ppm (section 4), day 7): 7.17 log CFU/g
